Patent EP0646375A1, “Method of regulating blood amino acid levels” (CLINTEC NUTRITION COMPANY, priority 1993, dated 1995)
Residues, ends and D or L forms follow the SMILES beside them.

What was measured:
[1] = in vivo; conditions: male, Sprague Dawley, rat, iv
[2] = rat, in vivo

Row | clearance [1] | mean Vβ of the dipeptide [2] | mean clearance of glutamine, times greater than glutamine from GlnGly or AlaGln [2] | mean t½ of glutamine, times shorter than glutamine from GlnGly or AlaGln [2] | CLEARANCE OF: Dipeptide ([2]; iv) | SMILES
1 | 122 mL/min/kg | – | – | – | – | C[C@H](N)C(=O)N[C@@H](CCC(N)=O)C(=O)O [ALA-GLN] (H-Ala-Gln-OH)
2 | 155 mL/min/kg | – | – | – | – | C[C@H](N)C(=O)N[C@@H](Cc1ccc(O)cc1)C(=O)O [ALA-TYR] (H-Ala-Tyr-OH)
3 | – | 0.06 to 0.07 L/kg | 4 times | 3 times | 278 mL/min/kg | C[C@H](NC(=O)[C@@H](N)CCC(N)=O)C(=O)O [GLN-ALA] (H-Gln-Ala-OH)
4 | 151 mL/min/kg | – | – | – | – | NC(=O)CC[C@H](N)C(=O)NCC(=O)O [GLN-GLY] (H-Gln-Gly-OH)
5 | 43 mL/min/kg | 0.06 to 0.07 L/kg | – | – | – | NCC(=O)N[C@@H](CCC(N)=O)C(=O)O [GLY-GLN] (H-Gly-Gln-OH)
6 | 101 mL/min/kg | 0.06 to 0.07 L/kg | – | – | – | NCC(=O)N[C@@H](Cc1ccc(O)cc1)C(=O)O [GLY-TYR] (H-Gly-Tyr-OH)
7 | 187 mL/min/kg | 0.06 to 0.07 L/kg | – | – | – | C[C@H](NC(=O)[C@@H](N)Cc1ccc(O)cc1)C(=O)O [TYR-ALA]
